# Key:
# Type in all cases: in vivo
# [1] = tested on: CT26 mouse colon carcinoma; experiment: Tumor volume / TGI in CT26 mice; settings: 5-FU alone 50 mg/kg IV QW
# Experimental: Immunocompetent, female Balb/C […] mice (ages 6-8 weeks) were ordered and received from National Laboratory Animal Center. Animals were housed on irradiated corncob bedding in micro-isolator caging. Fluorescent lighting was provided on a 12-hour cycle under temperature (20-23° C.) and humidity control (30-70%). Rodent feed and autoclaved acidified water (pH 2.5-3) were provided ad libitum.
# CT26 is an N-nitroso-N-methylurethane-(NNMU) induced, undifferentiated mouse colon carcinoma cell line. CT26 carcinoma cells were grown in McCoy's 5a culture medium supplemented with 10% (v/v) FBS and 1% PSN antibiotic mixture. The cells were maintained in an incubator with a humidified environment of 5% CO^2 at 37° C. in a 175 cm 2 flask and subcultured 2-3 times each week. On the study day, CT26 cells were thawed and prepared for inoculation into mice. Cells were washed in PBS, counted, and resuspended in cold PBS at concentrations of 2×10^6 viable cells/0.1 ml. […]
# Animals were monitored weekly for palpable tumors or any changes in appearance or behavior. Once tumors were palpable, they were measured using calipers. Tumor volume was calculated using the following equation ½(4π/3)(L/2)(W/2)H, where L is the length, W is the width, and H is the height of the tumor. […] Data were expressed as mean±SEM.
# [2] = tested on: HT-29 human colon adenocarcinoma cells; experiment: Tumor volume / TGI in HT-29 tumor-bearing mice; settings: for TGI (tumor growth inhibition rate): HT-29 mice, 5-FU 50 mg/kg QW
# Experimental: (§1) Immunocompromised, Nu/Nu, Female athymic nu/nu (nude) mice (ages 5-6 weeks, LASCO) were purchased from LASCO. Animals were housed in individual HEPA ventilated cages (Innocage® IVC, Innovive USA) housed for stabilization. Fluorescent lighting was provided on a 12-hour cycle under temperature (20-23° C.) and humidity control (30-70%). Rodent feed and water were provided ad libitum.
# (§2) HT-29 human colon adenocarcinoma cells (2×10^7) in PBS buffer were implanted subcutaneously on the right flank of each mouse. Once tumors were detectable, palpable and measurable, the primary tumor volumes were measured and recorded every 3 or 4 days. Tumor volume was calculated as ½(4π/3)(L/2)(W/2)H, where L is the length, W is the width, and H is the height of the tumor. […] Subjects were terminated from the study when the tumor volume reached approximately 1500 mm^3 or the body weight loss was greater than 20% (IACUC protocol limits).
# [3] = tested on: MDA-MB-231 human breast cancer cells; experiment: Tumor volume in MDA-MB-231 tumor-bearing mice; settings: 5-FU alone 30 mg/kg TIW vs vehicle control
# Experimental: as §1
# as §2, with “MDA-MB-231” for “HT-29”, “breast cancer Cells (5×10^6)” for “colon adenocarcinoma cells (2×10^7)”, “½×L×W^2,” for “½(4π/3)(L/2)(W/2)H,”, “length and” for “length,”, “width.” for “width, and H is the height of the tumor.”
compound,measurement,setting,value
"O=c1[nH]cc(F)c(=O)[nH]1 [5-FU, 5-fluorouracil]",TGI rate,[1],approximately 70%
same,TGI (tumor growth inhibition rate),[2]; D21,~60%
same,TGI (tumor growth inhibition rate),[2]; D28,~45%
same,tumor growth,"[2]; HT-29 tumor-bearing mice, 5-FU alone 50 mg/kg QW vs vehicle control",did not reduce tumor growth
same,tumor growth,[3],did reduce tumor growth
